Experimental data published in PubChem BioAssay AID1919010 (Molecular Pharmacology Branch, DTP, NCI, 2023).

Test system: Hs578T complex spheroid growth, percent test/control
Test: Anticancer human tumor Hs578T cell line growth inhibition [AhR];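 also: luminescent viability signal as a proxy for spheroid growth; spheroids exposed to agents for one week after three days of growth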
Details: for IC50: curve of first compound; for viability, T/C: stronger effect = lower value
Excerpt: Multicellular complex tumor spheroid response to aryl hydrocarbon receptor antagonists in combination with a variety of drugs and investigational agents in selected tumor cell lines
The current study was undertaken to assess response to aryl hydrocarbon receptor antagonists in combination with standard-of-care drugs and investigational agents in solid tumor complex spheroid models. Complex spheroids include a stromal component modeled by human endothelial cells (HUVEC) and fibroblasts modeled by human mesenchymal stem cells (MSCs). The concentration ranges selected for each drug and investigational agent were based upon clinically achievable concentrations if the clinical Cmax of the agent was known.
Compounds. The drugs and investigational agents: BAY 2416964 (NSC825713), GNF351 (NSC835774), CH-223191 (NSC835775), CPI-455 (NSC825282), aza-TdCyd (NSC777586), decitabine (NSC127716), belinostat (NSC758774), entinostat (NSC756642), pevonedistat (NSC761192), tazemetostat (NSC777109), talazoparib (NSC765396), olaparib (NSC753686), selinexor (NSC780203), nedisertib (M3814, NSC802822), bortezomib (NSC756655), venetoclax (NSC766270), doxorubicin (NSC123127), elimusertib (BAY189344, NSC800525), ceralasertib (AZD6738, NSC777638), TAK-243 (NSC785004), alisertib (NSC759677), etoposide (NSC141540), topotecan (NSC609699), eribulin (NSC707389), gemcitabine (NSC613327), carboplatin (NSC241240), cisplatin (NSC119875), and SN-38 (NSC673596) were obtained from the National Cancer Institute (NCI) Developmental Therapeutics Program Chemical Repository (32). The FDA-approved anticancer drug set is available from the Developmental Therapeutics Program at https://dtp.cancer.gov/organization/dscb/obtaining/available plates.htm. […] The stock solutions were prepared in dimethyl sulfoxide (DMSO, Sigma-Aldrich, St. Louis, MO, cat. D2650), except for the platinum compounds which were prepared in saline (Quality Biological, Gaithersburg, MD, cat. 114-055-101), at 800-fold the tested concentration and stored at -70 degrees C prior to their use. All drugs and investigational agents were tested over a range starting from a high concentration at or near the clinical Cmax and decreasing in half-log increments. If the clinical Cmax for an agent had not been determined, the highest concentration tested was 10 microM (Table 1).
Cell Culture. All cells were maintained in an incubator at 37 degrees C and 5% CO2 with 95% humidity. The PDC lines were cultured according to standard operating procedures established by the NCI PDMR (https://pdmr.cancer.gov). Briefly, all PDCs were thawed and cultured in Matrigel-coated flasks prepared with a working solution of 1X Ham's F-12 nutrient mix, without supplementation (Invitrogen, Waltham, MA, cat. 11765054), 100 U/mL penicillin-streptomycin (Invitrogen, cat. 15140122), and 2.5% Matrigel (Corning Inc., Corning, NY, cat. 354248) for the first three passages. All PDCs were cultured in complete DMEM/F-12 media containing advanced DMEM/F-12 (Invitrogen, cat. 12634028), 4.9% defined fetal bovine serum, heat inactivated (HyClone Laboratories Inc., Logan, UT, cat. SH30070.03HI), 389 ng/mL hydrocortisone (Sigma-Aldrich, cat. H4001), 9.7 ng/mL human EGF recombinant protein (Invitrogen, cat. PHG0313), 23.4 microg/mL adenine (Sigma-Aldrich, cat. A2786), 97.3 U/mL penicillin-streptomycin (Invitrogen, cat. 15140122), 1.9 mM L-glutamine (Invitrogen, cat. 25030081), and 9.7 microM Y-27632 dihydrochloride (Tocris Bioscience, Bristol, United Kingdom, cat. 1254). The PDCs were cultured in complete DMEM/F12 media without 10 microM Y-27632 dihydrochloride for at least two passages prior to the screen. The established cell lines NCI-H1341 and […] were cultured in DMEM/F-12, HEPES (Invitrogen, cat. 11330032), 5% defined fetal bovine serum (HyClone Laboratories Inc., cat. SH30070.03), ITS premix universal culture supplement [insulin (5 microg/mL), transferrin (5 microg/mL), and selenious acid (5 ng/mL)] […]

[1] = second compound 0.1 µM, first compound 0.0316 µM
[2] = second compound 0.1 µM, first compound 0.1 µM
[3] = second compound 0.316 µM, first compound 0.0316 µM
[4] = second compound 0.316 µM, first compound 0.1 µM
[5] = second compound 1 µM, first compound 0.0316 µM
[6] = second compound 1 µM, first compound 0.1 µM
[7] = second compound 3.16 µM, first compound 0.0316 µM
[8] = second compound 3.16 µM, first compound 0.1 µM
[9] = second compound 10 µM, first compound 0.0316 µM
[10] = second compound 10 µM, first compound 0.1 µM

With `CC[C@@]1(O)C(=O)OCc2c1cc1n(c2=O)Cc2cc3c(CN(C)C)c(O)ccc3nc2-1` + CC(CO)NC(=O)c1cc(-c2ccc(Cl)cc2)nn(-c2cnn(C)c2)c1=O the IC50 (second compound 0.1 µM) was > 100 nM, the IC50 (second compound 0.316 µM) was > 100 nM and the IC50 (second compound 1 µM) was > 100 nM. For the same compound, the IC50 (second compound 3.16 µM) was > 100 nM, the IC50 (second compound 10 µM) was > 100 nM and the viability, T/C (second compound 0.1 µM, first compound 0.000316 µM) was 120%. It also gave a viability, T/C (second compound 0.1 µM, first compound 0.001 µM) of 115%, a viability, T/C (second compound 0.1 µM, first compound 0.00316 µM) of 114% and a viability, T/C (second compound 0.1 µM, first compound 0.01 µM) of 103%. It also gave a viability, T/C [1] of 83.9%, a viability, T/C [2] of 82% and a viability, T/C (second compound 0.316 µM, first compound 0.000316 µM) of 112%. The viability, T/C (second compound 0.316 µM, first compound 0.001 µM) was 110%, the viability, T/C (second compound 0.316 µM, first compound 0.00316 µM) was 115% and the viability, T/C (second compound 0.316 µM, first compound 0.01 µM) was 98.9%. For the same compound, the viability, T/C [3] was 89.6%, the viability, T/C [4] was 84% and the viability, T/C (second compound 1 µM, first compound 0.000316 µM) was 126%. For the same compound, the viability, T/C (second compound 1 µM, first compound 0.001 µM) was 123%, the viability, T/C (second compound 1 µM, first compound 0.00316 µM) was 120% and the viability, T/C (second compound 1 µM, first compound 0.01 µM) was 109%. It also gave a viability, T/C [5] of 91.4%, a viability, T/C [6] of 103% and a viability, T/C (second compound 3.16 µM, first compound 0.000316 µM) of 115%. It also gave a viability, T/C (second compound 3.16 µM, first compound 0.001 µM) of 118%, a viability, T/C (second compound 3.16 µM, first compound 0.00316 µM) of 132% and a viability, T/C (second compound 3.16 µM, first compound 0.01 µM) of 93.8%. The viability, T/C [7] was 82.9%, the viability, T/C [8] was 86.8% and the viability, T/C (second compound 10 µM, first compound 0.000316 µM) was 110%. The viability, T/C (second compound 10 µM, first compound 0.001 µM) was 117%, the viability, T/C (second compound 10 µM, first compound 0.00316 µM) was 110% and the viability, T/C (second compound 10 µM, first compound 0.01 µM) was 103%. The viability, T/C [9] was 84.5% and the viability, T/C [10] was 83.7%.
`CCc1c2c(nc3ccc(O)cc13)-c1cc3c(c(=O)n1C2)COC(=O)[C@]3(O)CC` + CC(CO)NC(=O)c1cc(-c2ccc(Cl)cc2)nn(-c2cnn(C)c2)c1=O gave an IC50 (second compound 0.1 µM) of 207 nM, an IC50 (second compound 0.316 µM) of 158 nM and an IC50 (second compound 1 µM) of 182 nM. It also gave an IC50 (second compound 3.16 µM) of 193 nM, an IC50 (second compound 10 µM) of 194 nM and a viability, T/C (second compound 0.1 µM, first compound 0.000949 µM) of 87.1%. It also gave a viability, T/C (second compound 0.1 µM, first compound 0.003 µM) of 86.2%, a viability, T/C (second compound 0.1 µM, first compound 0.00949 µM) of 78.3% and a viability, T/C (second compound 0.1 µM, first compound 0.03 µM) of 76.7%. For the same compound, the viability, T/C (second compound 0.1 µM, first compound 0.0949 µM) was 65%, the viability, T/C (second compound 0.1 µM, first compound 0.3 µM) was 42.7% and the viability, T/C (second compound 0.316 µM, first compound 0.000949 µM) was 79.3%. For the same compound, the viability, T/C (second compound 0.316 µM, first compound 0.003 µM) was 88%, the viability, T/C (second compound 0.316 µM, first compound 0.00949 µM) was 82.3% and the viability, T/C (second compound 0.316 µM, first compound 0.03 µM) was 66.3%. It also gave a viability, T/C (second compound 0.316 µM, first compound 0.0949 µM) of 58.2%, a viability, T/C (second compound 0.316 µM, first compound 0.3 µM) of 42% and a viability, T/C (second compound 1 µM, first compound 0.000949 µM) of 81.6%. For the same compound, the viability, T/C (second compound 1 µM, first compound 0.003 µM) was 85%, the viability, T/C (second compound 1 µM, first compound 0.00949 µM) was 86.2% and the viability, T/C (second compound 1 µM, first compound 0.03 µM) was 72.5%. For the same compound, the viability, T/C (second compound 1 µM, first compound 0.0949 µM) was 59.1%, the viability, T/C (second compound 1 µM, first compound 0.3 µM) was 43.5% and the viability, T/C (second compound 3.16 µM, first compound 0.000949 µM) was 89.3%. It also gave a viability, T/C (second compound 3.16 µM, first compound 0.003 µM) of 94.5%, a viability, T/C (second compound 3.16 µM, first compound 0.00949 µM) of 89.9% and a viability, T/C (second compound 3.16 µM, first compound 0.03 µM) of 74.9%. It also gave a viability, T/C (second compound 3.16 µM, first compound 0.0949 µM) of 57.5%, a viability, T/C (second compound 3.16 µM, first compound 0.3 µM) of 45.5% and a viability, T/C (second compound 10 µM, first compound 0.000949 µM) of 82.5%. For the same compound, the viability, T/C (second compound 10 µM, first compound 0.003 µM) was 82.7%, the viability, T/C (second compound 10 µM, first compound 0.00949 µM) was 78.1% and the viability, T/C (second compound 10 µM, first compound 0.03 µM) was 73.3%. It also gave a viability, T/C (second compound 10 µM, first compound 0.0949 µM) of 64.8% and a viability, T/C (second compound 10 µM, first compound 0.3 µM) of 41.2%.
With `Nc1ccn(C2OC(CO)C(O)C2(F)F)c(=O)n1` (stereo not given) + CC(CO)NC(=O)c1cc(-c2ccc(Cl)cc2)nn(-c2cnn(C)c2)c1=O the IC50 (second compound 0.1 µM) was > 10000 nM, the IC50 (second compound 0.316 µM) was 9590 nM and the IC50 (second compound 1 µM) was > 10000 nM. The IC50 (second compound 3.16 µM) was > 10000 nM, the IC50 (second compound 10 µM) was 770 nM and the viability, T/C [1] was 54.6%. For the same compound, the viability, T/C [2] was 58.7%, the viability, T/C (second compound 0.1 µM, first compound 0.316 µM) was 62.1% and the viability, T/C (second compound 0.1 µM, first compound 1 µM) was 54%. The viability, T/C (second compound 0.1 µM, first compound 3.16 µM) was 51.9%, the viability, T/C (second compound 0.1 µM, first compound 10 µM) was 52.4% and the viability, T/C [3] was 60.3%. It also gave a viability, T/C [4] of 63.5%, a viability, T/C (second compound 0.316 µM, first compound 0.316 µM) of 52.5% and a viability, T/C (second compound 0.316 µM, first compound 1 µM) of 52.3%. It also gave a viability, T/C (second compound 0.316 µM, first compound 3.16 µM) of 57.3%, a viability, T/C (second compound 0.316 µM, first compound 10 µM) of 47.9% and a viability, T/C [5] of 61.1%. For the same compound, the viability, T/C [6] was 70.3%, the viability, T/C (second compound 1 µM, first compound 0.316 µM) was 55.3% and the viability, T/C (second compound 1 µM, first compound 1 µM) was 50.5%. It also gave a viability, T/C (second compound 1 µM, first compound 3.16 µM) of 57.9%, a viability, T/C (second compound 1 µM, first compound 10 µM) of 50.4% and a viability, T/C [7] of 59.4%. For the same compound, the viability, T/C [8] was 61.8%, the viability, T/C (second compound 3.16 µM, first compound 0.316 µM) was 59.5% and the viability, T/C (second compound 3.16 µM, first compound 1 µM) was 54.5%. The viability, T/C (second compound 3.16 µM, first compound 3.16 µM) was 53.6%, the viability, T/C (second compound 3.16 µM, first compound 10 µM) was 58.5% and the viability, T/C [9] was 55.1%. The viability, T/C [10] was 60.6%, the viability, T/C (second compound 10 µM, first compound 0.316 µM) was 47.7% and the viability, T/C (second compound 10 µM, first compound 1 µM) was 44.6%. For the same compound, the viability, T/C (second compound 10 µM, first compound 3.16 µM) was 51.5% and the viability, T/C (second compound 10 µM, first compound 10 µM) was 49.1%.
